For one assay, the target named is T1, TYK2 JH2 (Homo sapiens, UniProt P29597).
T1 construct: purchased DiscoverX (KINOMEscan KdELECT service); host or cells: E. coli BL21-derived (T7 phage display) or HEK-293
Nature of the assay: TYK2 JH2 binding assay (KINOMEscan KdELECT competitive binding). Particulars: TYK2 JH2 domain, KINOMEscan KdELECT (Assay A). An outline of the steps: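 Competition binding, KdELECT format. Kinase (phage-tagged, E. coli BL21-derived host; or HEK-293, DNA-tagged) + ligand-coated streptavidin beads + cpd, 1 h RT, final DMSO 0.9%. Wash, elute 30 min with 0.5 μM non-biotinylated ligand; qPCR readout. Kd: 11-pt, 3-fold series.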

Assay [1] deals with JAK1/TYK2 pSTAT5 (Tyr694/699) in THP-1 cell line. Nature of the assay: IFNa-stimulated JAK1/TYK2 pSTAT5 (Tyr694/699) inhibition cellular assay, AlphaLISA. Particulars: Homo sapiens, THP-1 cells, AlphaLISA (Assay B). Format: cell-based. Summed up: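 THP-1 cells (2e4/well in HBSS) were preincubated with compound (8 points, 6-fold steps from 10000 nM final) for 1 h at 37 °C, then stimulated with IFNa (added at 100 ng/mL) for 30 min. Lysate pSTAT5 was read by AlphaLISA at 615 nm. IC50 came from a 4-parameter fit with bottom 0 and Hill −1.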

Setting [2] is: read-out: Biochemical TYK2_DiscoverX_JH2_BND_Kd.
Where [3] appears, read: IFNa-stimulated pSTAT5 (Tyr694/699), read-out: Cellular_THP1_IFNa-pSTATS_TYK2.
Where [4] appears, read: read-out: Biochemical TYK2_JH2_Kd.
Setting [5] is: IFNa-stimulated, read-out: Cellular THP1_IFNa-pSTATS_IC50.

Where a name gives a salt, the structure may show the parent alone. Read-outs that look alike come from different tables or passages of the source. Some results are limits rather than exact numbers.

T1 sequence (P29597 589-875 limits assumed): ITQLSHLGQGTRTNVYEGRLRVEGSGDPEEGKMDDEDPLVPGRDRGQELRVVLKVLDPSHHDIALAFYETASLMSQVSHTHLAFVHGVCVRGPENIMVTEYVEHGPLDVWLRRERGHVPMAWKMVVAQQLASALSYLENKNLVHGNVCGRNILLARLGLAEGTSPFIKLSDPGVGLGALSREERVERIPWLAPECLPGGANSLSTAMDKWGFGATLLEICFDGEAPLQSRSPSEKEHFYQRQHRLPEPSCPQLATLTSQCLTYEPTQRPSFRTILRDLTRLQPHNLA

In the case of `CC[C@@H]1CN(c2ccc3nc(-c4cnc(NC)c5cnc(NC(=O)[C@H]6C[C@H]6C)cc45)nn3c2)CCO1` (single isomer, unassigned) [Example 1078], the Kd at TYK2 JH2 (setting [2]) is at most 100 nM. The IC50 in assay [1] (setting [3]) is at most 500 nM.
For `CC[C@H]1CN(c2ccc3nc(-c4cnc(NC)c5cnc(NC(=O)[C@H]6C[C@H]6C)cc45)nn3c2)CCO1` (single isomer, unassigned) [Example 1079], in that order: at most 100 nM and at most 500 nM.
For the compound `CNc1ncc(-c2nc3ccc(N4CCOCC4)cn3n2)c2cc(NC(=O)[C@H]3CC3(F)F)ncc12` (single isomer, unassigned) [Example 1141], the Kd on TYK2 JH2 (setting [2]) is at most 100 nM. Moreover, in assay [1] (setting [3]), the IC50 was at most 500 nM.
With `CNc1ncc(-c2ccccc2)c2cc(NC(=O)C3CC3)ncc12` [Example 1, N-(8-(methylamino)-5-phenyl-2,7-naphthyridin-3-yl)cyclopropanecarboxamide], the Kd at TYK2 JH2 (setting [4]) is at most 100 nM. For the same compound, the IC50 in assay [1] (setting [5]) is over 500 nM.
Taken in the same sequence, the figures for `CNc1nccc2cc(NC(=O)C3CC3)ncc12` [Example 2, N-(8-(methylamino)-2,7-naphthyridin-3-yl)cyclopropanecarboxamide] were 100 to 1000 nM and over 500 nM.
Taken in the same sequence, the figures for `CNc1ncc(Br)c2cc(NC(=O)C3CC3)ncc12` [Example 3, N-(5-bromo-8-(methylamino)-2,7-naphthyridin-3-yl)cyclopropanecarboxamide] were at most 100 nM and over 500 nM.
Taken in the same sequence, the figures for `CNc1ncc(-c2ccccn2)c2cc(NC(=O)C3CC3)ncc12` [Example 4, N-(8-(methylamino)-5-(pyridin-2-yl)-2,7-naphthyridin-3-yl)cyclopropanecarboxamide] were at most 100 nM and over 500 nM.
Take `CNc1ncc(-c2ncccc2OC)c2cc(NC(=O)C3CC3)ncc12` [Example 5, N-(5-(3-methoxypyridin-2-yl)-8-(methylamino)-2,7-naphthyridin-3-yl)cyclopropanecarboxamide]: the Kd on TYK2 JH2 (setting [4]) was in the range of 100 to 1000 nM. Moreover, the IC50 in assay [1] (setting [5]) was over 500 nM.
Taken in the same sequence, the figures for `CNc1ncc(-c2ccnn2C)c2cc(NC(=O)C3CC3)ncc12` [Example 6, N-(5-(1-methyl-1H-pyrazol-5-yl)-8-(methylamino)-2,7-naphthyridin-3-yl)cyclopropanecarboxamide] were at most 100 nM and over 500 nM.
In the case of `CNc1ncc(-c2ccccc2OC)c2cc(NC(=O)C3CC3)ncc12` [Example 7, N-(5-(2-methoxyphenyl)-8-(methylamino)-2,7-naphthyridin-3-yl)cyclopropanecarboxamide], the Kd on TYK2 JH2 (setting [4]) fell in the range of 100 to 1000 nM. The IC50 in assay [1] (setting [5]) is over 500 nM.
Regarding `CNc1ncc(-c2ccncc2OC)c2cc(NC(=O)C3CC3)ncc12` [Example 8, N-(5-(3-methoxypyridin-4-yl)-8-(methylamino)-2,7-naphthyridin-3-yl)cyclopropanecarboxamide], at TYK2 JH2 (setting [4]), the Kd is at most 100 nM. The IC50 in assay [1] (setting [5]) was over 500 nM.
For `CNc1ncc(-c2ccncc2)c2cc(NC(=O)C3CC3)ncc12` [Example 9], in that order: at most 100 nM and over 500 nM.
As for `CNc1ncc(-c2cc(C)no2)c2cc(NC(=O)C3CC3)ncc12` [Example 10, N-(8-(methylamino)-5-(3-methylisoxazol-5-yl)-2,7-naphthyridin-3-yl)cyclopropanecarboxamide], the Kd at TYK2 JH2 (setting [4]) was at most 100 nM. Besides, the IC50 in assay [1] (setting [5]) is over 500 nM.
Taken in the same sequence, the figures for `CCc1ccccc1-c1cnc(NC)c2cnc(NC(=O)C3CC3)cc12` [Example 11, N-(5-(2-ethylphenyl)-8-(methylamino)-2,7-naphthyridin-3-yl)cyclopropanecarboxamide] were 100 to 1000 nM and over 500 nM.
For `CNc1ncc(-c2cccc(OC)c2)c2cc(NC(=O)C3CC3)ncc12` [Example 12, N-(5-(3-methoxyphenyl)-8-(methylamino)-2,7-naphthyridin-3-yl)cyclopropanecarboxamide], in that order: at most 100 nM and over 500 nM.
Taken in the same sequence, the figures for `CNc1ncc(-c2ccc(OC)cc2)c2cc(NC(=O)C3CC3)ncc12` [Example 13, N-(5-(4-methoxyphenyl)-8-(methylamino)-2,7-naphthyridin-3-yl)cyclopropanecarboxamide formate] were at most 100 nM and over 500 nM.
For `CNc1ncc(-c2cccnc2)c2cc(NC(=O)C3CC3)ncc12` [Example 14, N-(8-(methylamino)-5-(pyridin-3-yl)-2,7-naphthyridin-3-yl)cyclopropanecarboxamide], the Kd at TYK2 JH2 (setting [4]) was at most 100 nM. Moreover, in assay [1] (setting [5]), the IC50 is over 500 nM.
In the case of `CNc1ncc(-c2ccccc2Cl)c2cc(NC(=O)C3CC3)ncc12` [Example 15, N-(5-(2-chlorophenyl)-8-(methylamino)-2,7-naphthyridin-3-yl)cyclopropanecarboxamide], the Kd at TYK2 JH2 (setting [4]) was at most 100 nM. Also, in assay [1] (setting [5]), the IC50 is over 500 nM.
Turning to `CNc1ncc(-c2ccc(Cl)cc2)c2cc(NC(=O)C3CC3)ncc12` [Example 16, N-(5-(4-chlorophenyl)-8-(methylamino)-2,7-naphthyridin-3-yl)cyclopropanecarboxamide], the Kd on TYK2 JH2 (setting [4]) is at most 100 nM. The IC50 in assay [1] (setting [5]) is over 500 nM.
Taken in the same sequence, the figures for `CNc1ncc(-c2ccccc2F)c2cc(NC(=O)C3CC3)ncc12` [Example 17, N-(5-(2-fluorophenyl)-8-(methylamino)-2,7-naphthyridin-3-yl)cyclopropanecarboxamide] were at most 100 nM and over 500 nM.
Regarding `CNc1ncc(-c2ccc(F)cc2)c2cc(NC(=O)C3CC3)ncc12` [Example 18, N-(5-(4-fluorophenyl)-8-(methylamino)-2,7-naphthyridin-3-yl)cyclopropanecarboxamide], the Kd at TYK2 JH2 (setting [4]) was at most 100 nM. The IC50 in assay [1] (setting [5]) is over 500 nM.
Taken in the same sequence, the figures for `CCn1nccc1-c1cnc(NC)c2cnc(NC(=O)C3CC3)cc12` [Example 19, N-(5-(1-ethyl-1H-pyrazol-5-yl)-8-(methylamino)-2,7-naphthyridin-3-yl)cyclopropanecarboxamide] were at most 100 nM and over 500 nM.
Taken in the same sequence, the figures for `CNc1ncc(-c2ccnn2Cc2ccccc2)c2cc(NC(=O)C3CC3)ncc12` [Example 20, N-(5-(1-benzyl-1H-pyrazol-5-yl)-8-(methylamino)-2,7-naphthyridin-3-yl)cyclopropanecarboxamide] were at most 100 nM and over 500 nM.
Taken in the same sequence, the figures for `CNc1ncc(-c2ccc3c(c2)OCO3)c2cc(NC(=O)C3CC3)ncc12` [Example 21, N-(5-(benzo[d][1,3]dioxol-5-yl)-8-(methylamino)-2,7-naphthyridin-3-yl)cyclopropanecarboxamide] were at most 100 nM and over 500 nM.
As for `CNc1ncc(-c2ccc(C)s2)c2cc(NC(=O)C3CC3)ncc12` [Example 22, N-(8-(methylamino)-5-(5-methylthiophen-2-yl)-2,7-naphthyridin-3-yl)cyclopropanecarboxamide], the Kd at TYK2 JH2 (setting [4]) is at most 100 nM. The IC50 in assay [1] (setting [5]) was over 500 nM.
For the compound `CNc1ncc(-c2cc(C)n[nH]2)c2cc(NC(=O)C3CC3)ncc12` [Example 23, N-(5-(3-methyl-1H-pyrazol-5-yl)-8-(methylamino)-2,7-naphthyridin-3-yl)cyclopropanecarboxamide], at TYK2 JH2 (setting [4]), the Kd was at most 100 nM. The IC50 in assay [1] (setting [5]) is over 500 nM.
Regarding `CNc1ncc(-c2cn[nH]c2)c2cc(NC(=O)C3CC3)ncc12` [Example 24, N-(8-(methylamino)-5-(1H-pyrazol-4-yl)-2,7-naphthyridin-3-yl)cyclopropanecarboxamide], the Kd at TYK2 JH2 (setting [4]) was at most 100 nM. In addition, the IC50 in assay [1] (setting [5]) is over 500 nM.
`CNc1ncc(-c2cnn(C)c2)c2cc(NC(=O)C3CC3)ncc12` [Example 25, N-(5-(1-methyl-1H-pyrazol-4-yl)-8-(methylamino)-2,7-naphthyridin-3-yl)cyclopropanecarboxamide]: at TYK2 JH2 (setting [4]), the Kd was at most 100 nM. Also, the IC50 in assay [1] (setting [5]) was over 500 nM.
For `CNc1ncc(-c2ncsc2C)c2cc(NC(=O)C3CC3)ncc12` [Example 26, N-(8-(methylamino)-5-(5-methylthiazol-4-yl)-2,7-naphthyridin-3-yl)cyclopropanecarboxamide], in that order: at most 100 nM and over 500 nM.
For `CNc1ncc(C)c2cc(NC(=O)C3CC3)ncc12` [Example 27, N-(5-methyl-8-(methylamino)-2,7-naphthyridin-3-yl)cyclopropanecarboxamide], in that order: at most 100 nM and over 500 nM.
For `CNc1ncc(C2CC2)c2cc(NC(=O)C3CC3)ncc12` [Example 28, N-(5-cyclopropyl-8-(methylamino)-2,7-naphthyridin-3-yl)cyclopropanecarboxamide], in that order: at most 100 nM and over 500 nM.
On to `CNc1ncc(-c2cccc(S(C)(=O)=O)c2)c2cc(NC(=O)C3CC3)ncc12` [Example 29, N-(8-(methylamino)-5-(3-(methylsulfonyl)phenyl)-2,7-naphthyridin-3-yl)cyclopropanecarboxamide], for which the Kd at TYK2 JH2 (setting [4]) was at most 100 nM. Further, the IC50 in assay [1] (setting [5]) is over 500 nM.
